In this assay the target is G-protein coupled receptor 35 (Homo sapiens, UniProt Q9HC97). In words: Human GPR35a Isoform Binding Assay. As to the method:
Overexpression of Human GPR35a Baculovirus in HEK293f cells at a cell density of 2.5 106 cells/mL and a multiplicity of infection of 2.5 over 24 h in Pro293 (Lonza)+5% FBS, 1% Glutamax and 0.4% Pen/Strep. Cells harvested and centrifuged at 2500 RPM for 10 mins at 4 C. The supernatant was then poured off and the pellet stored at +-80 C. The pellet was defrosted and re-suspended in 15 mL of homogenising buffer (20 mM HEPES, 10 mM EDTA, pH 7.4). Then homogenised in mechanical homogeniser (VMR) for 10 seconds. The membrane was centrifuged in centrifuge tubes at 40,000 g for 15 mins at 4 C. The supernatant was poured away and re-suspended in 15 mL of homogenising buffer. Homogenised for 20 seconds. The membrane was centrifuged at 40,000 g for 45 mins at 4 C. The membrane was re-suspended in 3 mL of storage buffer (20 mM HEPES, 0.1 mM EDTA, pH 7.4) mixing well. The resulting membranes were then stored at +-80 . […] 0.1 uM FAC Lodoxamide was added in order to allow non-specific binding to be calculated. […] Plates were dried prior to 50 ul/well scintillant added, sealed and radioactivity measured using a MicroBeta analyser. IC50 values were derived from the inhibition curve and affinity constant (Ki) values were calculated using the Cheng-Prussoff equation, where; pKi=+-log 10 Ki.

Each structure is given as a SMILES string. pKi: −log10 of the molar value.

Chain of G-protein coupled receptor 35 (Q9HC97 whole entry, canonical isoform): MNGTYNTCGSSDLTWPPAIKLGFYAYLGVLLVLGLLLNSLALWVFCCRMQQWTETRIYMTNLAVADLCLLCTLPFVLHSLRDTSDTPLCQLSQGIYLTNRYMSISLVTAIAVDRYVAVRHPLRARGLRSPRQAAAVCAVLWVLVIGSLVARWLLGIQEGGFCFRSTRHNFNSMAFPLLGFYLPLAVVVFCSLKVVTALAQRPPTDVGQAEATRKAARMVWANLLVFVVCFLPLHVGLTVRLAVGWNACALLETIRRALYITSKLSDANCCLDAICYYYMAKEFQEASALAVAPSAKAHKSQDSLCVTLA

Take `O=c1c(O)c(Nc2cccc(-c3nn[nH]n3)c2)c1=O` [US20240254093, Example 1]: the pKi (in general, the negative decadic logarithm of the Ki, by convention in mol/L) is 8.01.
The result for `O=c1c(O)c(Nc2cc(-c3ccccc3)cc(-c3nn[nH]n3)c2)c1=O` [US20240254093, Example 3] reads 9.46.

The values are drawn from BindingDB's records for patent US20240254093 (Heptares Therapeutics Limited, 2024).
